# From US6653442B1, “Protegrins” (priority 1993, dated 2003)
# Bridge positions count the residues as written; N and C are the ends. Square brackets hold non-standard residues; d marks the D form. Ends that are not written are not given here. Peptide text beside a SMILES is read from it. Sar = CNCC(=O)O
# What was measured:
# [1] = test system: Pseudomonas aeruginosa (Psa); assay: Minimal inhibitory concentration, Psa; format: cell-based
# Procedure: (§1) The minimal inhibitory concentrations (MICs) of a variety of protegrins were determined against the following organisms: methicillin resistant Staphylococcus aureus (MRSA), Pseudomonas aeruginosa (Psa), vancomycin resistant Enterococcus fecium (VREF), Candida albicans (Candid) and Escherichia coli (E. Co), and are shown in Table 9.
# [2] = test system: methicillin resistant Staphylococcus aureus (MRSA); assay: Minimal inhibitory concentration, MRSA; format: cell-based
# Procedure: as §1
# [3] = test system: vancomycin resistant Enterococcus fecium (VREF); assay: Minimal inhibitory concentration, VREF; format: cell-based
# Procedure: as §1
# [4] = Radial diffusion assay in 25 mM borate buffer (Table 4); format: cell-based; details: buffer (25 mM borate buffer, pH 7.4)
# Procedure: Contact lens solutions are typically formulated with borate buffered physiological saline and may or may not contain EDTA in addition. Protegrins in the form of the synthetic PG-3 amide and synthetic PG acid were tested generally in the assay described in Example 1 wherein all underlay gels contain 25 mM borate buffer, pH […] tryptocase soy broth ([…] TSB powder) and […]. Additions included either 100 mM NaCl, 1 mM EDTA or a combination thereof. Other test compounds used as controls were the defensin NP-1 and lysozyme. Dose response curves were determined.
# [5] = test system: Listeria monocytogenes, strain EGD; assay: Radial diffusion assay in agarose gels, L. monocytogenes; format: cell-based
# Procedure: Aliquots (66 μl) of each fraction were dried by vacuum centrifugation and resuspended in 6.6 μl of 0.01% acetic acid. Five μl samples of this concentrate were tested for antimicrobial activity against E. coliML-3, L. monocytogenes, strain EGD and C. albicans, strain 820, using radiodiffusion and gel overlay techniques as described by Lehrer, R. I. et al. J Immunol Meth (1991) 137:167-173. […] The units of activity in the radial diffusion assay were measured as described; 10 units correspond to a 1 mm diameter clear zone around the sample well. Activity was found in a large number of fractions.
# The radial diffusion assay in agarose gels described in Example 1 was also used to test the activity of the purified protegrins. FIGS. 4a, 4b and 4c show the results against three test organisms in units described as above.
# The antimicrobial activity of the linearalized forms was also compared with that of the native protegrins. Both linearalized and cyclic forms of the protegrins tested continue to show antimicrobial activity, although the effectiveness of these peptides as antimicrobials depends on the nature of the target organism and on the test conditions. The antimicrobial activity of native PG-1 and its linearalized form (cam-PG-1) and PG-3 and its linearalized form (cam-PG-3) were tested according to the procedure set forth in Example 1 as described by Lehrer, R. I. et al. J Immunol Meth (1991) 137:167-173.
# Using standard solid phase techniques, a protegrin having the amino acid sequence of PG-1, but wherein every amino acid is in the D form was prepared. This form of protegrin was tested against E. coli, L. monocytogenes, C. albicans and other microbes in the absence and presence of protease and otherwise as described for the radiodiffusion assay in agarose gels set forth in Example 1.
# The kite and bullet PG-1 compounds prepared in Example 12 were tested for antimicrobial activity using the radial diffusion assay described in Example 1 as published by Lehrer, R. I. et al., J Immunol Meth (1991) 137:167-173, except that the underlay agars contained […] sodium phosphate buffer with a final pH of 7.4. As described in Example 1, 0.3 mg/ml tripticase soy broth powder and 1% agarose were used as well in the underlay agar. In some cases 100 mM NaCl or RPMI plus 2.5% normal human serum (NHS) was added to the agar.
# [6] = test system: C. albicans, strain 820; format: cell-based, Candida albicans
# Procedure: Similarly, using C. albicans as a target organism, underlayers were prepared with 10 mM sodium phosphate with and without 10% normal human serum.
# [7] = test system: E. coli ML-35P; assay: Radial diffusion assay in agarose gels, E. coli; format: cell-based
# Procedure: Aliquots (66 μl) of each fraction were dried by vacuum centrifugation and resuspended in 6.6 μl of 0.01% acetic acid. […] The units of activity in the radial diffusion assay were measured as described; 10 units correspond to a 1 mm diameter clear zone around the sample well.
# [8] = test system: Candida albicans; assay: Radial diffusion assay in 25 mM borate buffer, Candida albicans; format: cell-based
# [9] = test system: L. monocytogenes; assay: Radial diffusion assay in 25 mM borate buffer, L. monocytogenes; format: cell-based
molecule,measurement,setting,value
R-G-G-R-L-C-Y-C-R-X-R-F-C-V-C-V-G-R-OH (X=NMeG) (RGGRLCYCR[Sar]RFCVCVGR-OH; ends and bridges not checked) [IB-341],minimal inhibitory concentration (MIC) Psa,[1],2
same,minimal inhibitory concentration (MIC) MRSA,[2],5.33
same,minimal inhibitory concentration (MIC) VREF,[3],1
lysozyme [reference compound],ESTIMATED MINIMAL FUNGICIDAL CONCENTRATIONS,[4],75.0 µg/mL
R-G-G-R-L-C-Y-C-R-P-R-F-C-V-C-V-G-R (RGGRLCYCRPRFCVCVGR-NH2; cysteine pairing not given here) [PG-5],antimicrobial activity against L. monocytogenes compared to synthetic PG-1 (FIGS. 11a-11c),[5],comparable antimicrobial activity to PG-1
same,antimicrobial activity against C. albicans compared to synthetic PG-1 (FIGS. 11a-11c),[6],comparable antimicrobial activity to PG-1
same,antimicrobial activity against E. coli compared to synthetic PG-1 (FIGS. 11a-11c),[7],comparable antimicrobial activity to PG-1
"CC[C@H](C)[C@@H]1NC(=O)[C@H](CCCNC(=N)N)NC(=O)[C@@H]2CSSC[C@@H]3NC(=O)[C@H](C)NC(=O)[C@@H](NC(=O)[C@@H](NC(=O)[C@@H](N)C(C)C)C(C)C)CSSC[C@@H](C(=O)N[C@@H](CCCNC(=N)N)C(=O)N[C@@H](CCCNC(=N)N)C(=O)O)NC(=O)[C@H](CSSC[C@H](NC(=O)[C@H](CC(C)C)NC(=O)[C@H](C)NC(=O)[C@H](CCCNC(=N)N)NC(=O)[C@H](CCCNC(=N)N)NC3=O)C(=O)N[C@@H](CC(C)C)C(=O)N3CCC[C@H]3C(=O)N[C@@H](CCCNC(=N)N)C(=O)N[C@@H](CCC(=O)O)C(=O)N[C@@H](CCCNC(=N)N)C(=O)N[C@@H](CCCNC(=N)N)C(=O)N[C@@H](C)C(=O)NCC(=O)N[C@@H](Cc3ccccc3)C(=O)N2)NC(=O)[C@H](CC(C)C)NC(=O)[C@@H]2CCCN2C(=O)[C@H](Cc2c[nH]cn2)NC(=O)[C@H]([C@@H](C)CC)NC(=O)[C@H](CCCNC(=N)N)NC(=O)CNC(=O)[C@H](CCCNC(=N)N)NC1=O [NP-1, reference compound] (H-VVCACRRALCLPRERRAGFCRIRGRIHPLCCRR-OH; disulfide 3-31, 5-20, 10-30; N-terminus and C-terminus assumed)",ESTIMATED MINIMAL FUNGICIDAL CONCENTRATIONS,[8]; 25 mM borate buffer,23.0 µg/mL
same,ESTIMATED MINIMAL FUNGICIDAL CONCENTRATIONS,[8]; borate buffer + 120 mM NaCl,60.0 µg/mL
same,ESTIMATED MINIMAL FUNGICIDAL CONCENTRATIONS,[8]; borate buffer + EDTA & NaCl,65.0 µg/mL
same,ESTIMATED MINIMAL BACTERICIDAL CONCENTRATIONS,[9]; 25 mM borate buffer,20.0 µg/mL
same,ESTIMATED MINIMAL BACTERICIDAL CONCENTRATIONS,[9]; borate buffer + 120 mM NaCl,11.0 µg/mL
same,ESTIMATED MINIMAL BACTERICIDAL CONCENTRATIONS,[9]; borate buffer + EDTA & NaCl,3.8 µg/mL
same,activity against Candida albicans in fetal calf serum (FIG. 5c),[6]; 90% fetal calf serum,lose their ability to inactivate C. albicans
same,activity against C. albicans in NaCl (FIG. 5a),[6]; in the presence of 100 mM NaCl,Neither NP-1 nor HNP-1 have this property
same,activity against E. coli in NaCl (FIG. 5b),[7]; in the presence of 100 mM NaCl,Neither NP-1 nor HNP-1 have this property
same,ESTIMATED MINIMAL FUNGICIDAL CONCENTRATIONS,[4],35.0 µg/mL
